Data from patent publication US9351998B2, “Methods of nourishing animals” (MariCal, Inc., priority 2008, dated 2016).
“Also recorded” adds a separate entry of the source.

Assays:
avian CaSR = assay: FURA2 ratio imaging fluorimetry of HEK cells stably expressing avian (chicken) CaSR; type: cell-based
From the text: (§1) All methods and equipment utilized to perform experiments on HEK cells have been reported previously (Gama, L. and Breitwieser, G. E. 1998. A carboxyl-terminal domain controls the cooperativity for extracellular Ca2+ activation of the human calcium sensing receptor. A study with receptor-green fluorescent protein fusions. J. Biol. Chem. 273, 29712-29718; Bai, M., Quinn, S., Trivedi, S., Kifor, 0., Pearce, S. H., Pollak, M. R., Krapcho, K., Hebert, S. C. and Brown, E. M. 1996. Expression and characterization of inactivating and activating mutations in the human Ca2+o-sensing receptor. J. Biol. Chem. 271, 19537-19544). Untransfected HEK cells or, alternatively, cells transfected and expressing CaSR protein were cultured in Dulbecco's Modified Eagle Medium containing 10% fetal bovine serum and 1% penicillin-streptomycin in 75 cm^2 flasks until they reached confluence. Media was removed from the flasks and cells were loaded by exposure to Loading Buffer (125 mM NaCl, 4 mM KCl, 1.0 mMCaCl2, 1.0 mM MgCl2, 1 mM NaH2PO4, 20 mM HEPES, 1 gm/liter bovine serum albumin, and 1 gm/l glucose, pH ˜7.4, osmolality ˜285) containing 4.1 micromolar FURA2-AM (Molecular Probes Inc. Eugene, Oreg.) for 2 hr. Cells were then scraped from the surface of the flask using a standard cell scraper (Costar 3010, Corning Inc.). Cells were then pelleted from the suspension by low speed centrifugation to remove loading buffer and rinsed twice to remove extracellular FURA2 dye by two sequential suspensions and pelleting steps using low speed centrifugation. Immediately prior to the start of the experiment, cells were resuspended in various experimental buffers for analyses as described below. The Standard Experimental Buffer used for many studies was composed of: 125 mM NaCl, 4 mM KCl, 0.5 mMCaCl2, 0.5 mM MgCl2, 20 mM HEPES, 1 g/l glucose, pH ˜7.4, osmolality ˜285. All other buffers were variations on this basic composition where specific components within the Standard Experimental Buffer were varied while the remaining components were held constant.
(§2) Cell suspensions consisting of a total volume of 3 ml were analyzed in a PTI fluorimeter (PTI Model 814 Photomultiplier Detection System equipped with SC-500 Shutter Controller and PTI Driver and Analysis Software) within approximately 20 min after exposure to experimental buffers. Data was acquired using standard ratio image analysis as described previously using a data acquisition rate of 1.3 sec. for 500 or 1000 second intervals.
(§3) In selected experiments, the detergent Triton X-100 was added in order to lyse the cells and quantify differences in FURA2 ratio fluorescence. Triton X-100 was added to the cells to obtain a maximal fluorescence signal from the FURA2 for purposes of quantification.
The ability of the CaSR modulator MC0100 to potentiate the response of avian and mammalian CaSRs to the chelated mineral amino acid complex, ZnPro, was tested. For avian CaSR experiments, three individual aliquots from a single pool of HEK cells that stably express the recombinant avian CaSR protein were used for ratio imaging fluorimetry assays of CaSR activation generally as described in Example 6 herein. […] In all aliquots, the detergent Triton X-100 was added as the last addition to lyse the cells (FIG. 29A).
From a single pool of HEK cells stably expressing the avian CaSR, aliquots of cells were removed and analyzed using ratio imaging fluorimetry generally as described in Example 6 herein. After a standard addition of Ca++ to a final concentration of 2.5 mM, either 0.0025%, 0.025% or 0.25% Zinc Proteinate was added followed by a second addition of Ca++ to a final concentration of 7.5 mM. Subsequently, an aliquot of the detergent Triton X-100 was added to lyse the cells. […] The magnitude of the subsequent CaSR response to Ca++ was reduced via increasing Zn Proteinate stimulation.
Fluorimetry analysis was performed on HEK cells expressing the recombinant chicken CaSR protein generally as described in Example 6 herein.

mammalian CaSR = target: T1, mammalian CaSR (Homo sapiens, UniProt P41180); assay: FURA2 ratio imaging fluorimetry of HEK cells stably expressing mammalian CaSR; type: cell-based
T1 construct: expressed in transfected cells; host or cells: HEK cells stably expressing the mammalian CaSR
T1 sequence (P41180 20-1078): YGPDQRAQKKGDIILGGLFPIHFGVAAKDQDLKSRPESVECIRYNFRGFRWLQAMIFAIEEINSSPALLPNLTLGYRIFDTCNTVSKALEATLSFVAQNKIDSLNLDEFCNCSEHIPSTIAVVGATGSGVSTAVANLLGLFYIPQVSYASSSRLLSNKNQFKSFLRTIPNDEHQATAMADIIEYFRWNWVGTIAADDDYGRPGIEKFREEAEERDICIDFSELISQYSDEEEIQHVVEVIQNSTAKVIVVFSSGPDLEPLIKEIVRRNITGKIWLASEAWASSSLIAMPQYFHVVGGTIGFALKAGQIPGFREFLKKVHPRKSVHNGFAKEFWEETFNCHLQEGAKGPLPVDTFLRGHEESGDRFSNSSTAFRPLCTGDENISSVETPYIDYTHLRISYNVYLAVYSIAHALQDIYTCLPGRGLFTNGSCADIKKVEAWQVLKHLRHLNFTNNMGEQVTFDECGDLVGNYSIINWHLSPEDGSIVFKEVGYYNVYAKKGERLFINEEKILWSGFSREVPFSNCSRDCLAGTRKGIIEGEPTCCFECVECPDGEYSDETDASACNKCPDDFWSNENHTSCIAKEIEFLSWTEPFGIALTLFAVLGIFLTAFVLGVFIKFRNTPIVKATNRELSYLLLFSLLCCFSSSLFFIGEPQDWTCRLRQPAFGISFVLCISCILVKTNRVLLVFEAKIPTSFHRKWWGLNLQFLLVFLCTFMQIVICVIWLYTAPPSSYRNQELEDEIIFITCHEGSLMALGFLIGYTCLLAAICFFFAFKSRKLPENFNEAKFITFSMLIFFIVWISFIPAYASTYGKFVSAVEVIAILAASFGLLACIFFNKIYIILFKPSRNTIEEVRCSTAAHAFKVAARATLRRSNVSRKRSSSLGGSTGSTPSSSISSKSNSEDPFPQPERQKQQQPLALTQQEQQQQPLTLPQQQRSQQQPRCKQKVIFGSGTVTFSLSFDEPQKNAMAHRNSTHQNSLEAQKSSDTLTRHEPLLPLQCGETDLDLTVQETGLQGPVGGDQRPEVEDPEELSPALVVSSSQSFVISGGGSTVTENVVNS
From the text: as §1, §2, §3
Experiments on HEK cells were performed generally as described in Example 6 herein. […] Subsequent addition of Ca2+ to a final concentration of 5 mM produced an additional response (see FIG. 26A). No response was observed upon addition of 0.025% Mintrex Zn after the addition of experimental buffer (EB) (see FIG. 26B). […] In addition, the magnitude of the CaSR response to 5 mM Ca2+ was diminished by previous addition of Mintrex Zn.
For mammalian CaSR experiments, two individual aliquots from a single pool of HEK cells that stably express the recombinant mammalian CaSR protein were used for ratio imaging fluorimetry assays of CaSR activation generally as described in Example 6 herein. Addition of Ca++ to a final concentration of 2.5 mM produced a CaSR response that was also followed by responses after subsequent additions of 0.025% Zn proteinate followed by Ca++ to a final concentration of 7.5 mM (FIG. 29B). […] There was also a response to a subsequent dose of Ca++ to a final concentration of 7.5 mM (FIG. 29B). In both tracings, the detergent Triton X-100 was added as a final step to lyse the cells.
Experiments on HEK cells were performed generally as described in Example 6 herein. […]

[1] = target: T2, recombinant human CaSR protein (Homo sapiens, UniProt P41180); assay: FURA2 ratio fluorimetry of HEK cells expressing recombinant human CaSR; type: cell-based
T2 construct: expressed in transfected cells; host or cells: HEK cells
T2 sequence (P41180 20-1078): T1 sequence (P41180 20-1078)
From the text: as §1, §2, §3

chick jejunal CaSR = assay: phospho-ERK immunoblot of HEK cells transfected with chick jejunal CaSR cDNA after increase in extracellular Ca2+; type: cell-based, chicken; settings: extracellular Ca2+ increased 0.5 mM to 10 mM
Method: HEK-293 cells were plated into 6-well plates so that the cells were 90% confluent at the time of transfection. The linearized and non-linearized plasmids were ethanol precipitated and quantified spectrophotometrically. A ratio of DNA to lipofectamine of 1:3.5 (4 μg of DNA and 14 μl Lipofectamine 2000) was used for the transfection procedure. To provide a negative control, only Lipofectamine was added to some HEK cells. After exposure to lipofectamine, hygromycin B (400 μg/ml) was used to select for HEK cells that had been transfected since the plasmid containing the putative CaSR sequence also contained a hygromycin resistance element.
At the start of hygromycin selection, flasks were about 40% confluent. All flasks experienced a high percentage of die off cells. After an interval of 10 days, all the cells in the negative control flasks were dead. […] Linear flask 1 and non-linear flask 1 were trypsinized by addition of 200 μl trypsin to redistribute dense colonies and prevent overcrowding 10 days after the start of hygromycin selection. New complete media was added containing 400 μg/ml hygromycin. At day 14, flasks had multiple colonies that were well spread out and were beginning to look overcrowded. Each flask was trypsinized, centrifuged and re-plated in a new flask, still under hygromycin selection. At day 17, transfected HEK cells were 60% confluent. […]

chicken CaSR = assay: CaSR dependent ERK 1/2 phosphorylation (Western blot) in HEK cells transfected with chicken CaSR; type: cell-based; settings: various concentrations of bacitracin Zn
Method: HEK cells transfected with the chicken CaSR were cultured under standard conditions (DMEM with 10% FCS). Confluent flasks were serum-starved overnight in DMEM supplemented with 0.2% BSA and pre-incubated for 60 min at 37° C. in the following medium: 125 mM NaCl, 4 mM KCl, 20 mM Hepes, 0.1% glucose, 0.8 mM NaH2PO4, 1 mM MgCl2, 0.1% BSA, 0.5 mM CaCl2, pH 7.45. The cells were then incubated in the same medium without BSA in the presence of different mineral chelates at different concentrations (see below) for 15 min at 37° C. At the end of the incubation treatment media was removed and cells were washed with PBS and than lysed in 250 microliter of M-PER lysis buffer (Pierce Chemical Company, Rockford, Ill.) containing 10 ul/ml of protease inhibitors (Pierce Chemical Company, Rockford, Ill.). Cell lysates were centrifuged for 10 min at 4° C. at 14,000×g. The protein content in the supernatants was analyzed using the BCA Protein Assay system from Pierce Chemical Company, Rockford, Ill. Equal amounts of protein (20 ug) were combined with 4× loading buffer and […] DTT, heated to 95° C., separated by SDS gel electrophoresis and electrotransferred to PVD membranes. The membranes were incubated in 1% BSA in TBS-T (TRIS-buffered saline containing Tween 20 at 0.1%) overnight. After 4 washes in TBS-T the membranes were incubated with primary antibody (anti phosphoERK at 1:400 dilution; this antibody recognizes the phosphorylated form of ERK 1/2) for 1.5 hours at room temperatures, washed 4 times and incubated with secondary antibody (anti mouse at 1:50,000 dilution). After 4 washes in TBS-T the membranes were developed using the ECL Western Blotting system.
The experiments described in FIGS. 34 A and B used the following metal chelate treatments: ZnProteinate, CuProteinate and MnProteinate (Balchem Corporation, New Hampton, N.Y.) at the following concentrations: 0.025% and 2.5%, or at a concentration of 0.025% with 1 micromolar MC 0100 (a calcimimetic); or various concentrations of bacitracin Zn.

recombinant CaSR protein = recombinant CaSR protein (Homo sapiens, UniProt P41180); settings: concentrations of spermine and calcium present in sow's milk (FIG. 20C); cited from earlier work

chicken CaSR, sequence (as listed by the source): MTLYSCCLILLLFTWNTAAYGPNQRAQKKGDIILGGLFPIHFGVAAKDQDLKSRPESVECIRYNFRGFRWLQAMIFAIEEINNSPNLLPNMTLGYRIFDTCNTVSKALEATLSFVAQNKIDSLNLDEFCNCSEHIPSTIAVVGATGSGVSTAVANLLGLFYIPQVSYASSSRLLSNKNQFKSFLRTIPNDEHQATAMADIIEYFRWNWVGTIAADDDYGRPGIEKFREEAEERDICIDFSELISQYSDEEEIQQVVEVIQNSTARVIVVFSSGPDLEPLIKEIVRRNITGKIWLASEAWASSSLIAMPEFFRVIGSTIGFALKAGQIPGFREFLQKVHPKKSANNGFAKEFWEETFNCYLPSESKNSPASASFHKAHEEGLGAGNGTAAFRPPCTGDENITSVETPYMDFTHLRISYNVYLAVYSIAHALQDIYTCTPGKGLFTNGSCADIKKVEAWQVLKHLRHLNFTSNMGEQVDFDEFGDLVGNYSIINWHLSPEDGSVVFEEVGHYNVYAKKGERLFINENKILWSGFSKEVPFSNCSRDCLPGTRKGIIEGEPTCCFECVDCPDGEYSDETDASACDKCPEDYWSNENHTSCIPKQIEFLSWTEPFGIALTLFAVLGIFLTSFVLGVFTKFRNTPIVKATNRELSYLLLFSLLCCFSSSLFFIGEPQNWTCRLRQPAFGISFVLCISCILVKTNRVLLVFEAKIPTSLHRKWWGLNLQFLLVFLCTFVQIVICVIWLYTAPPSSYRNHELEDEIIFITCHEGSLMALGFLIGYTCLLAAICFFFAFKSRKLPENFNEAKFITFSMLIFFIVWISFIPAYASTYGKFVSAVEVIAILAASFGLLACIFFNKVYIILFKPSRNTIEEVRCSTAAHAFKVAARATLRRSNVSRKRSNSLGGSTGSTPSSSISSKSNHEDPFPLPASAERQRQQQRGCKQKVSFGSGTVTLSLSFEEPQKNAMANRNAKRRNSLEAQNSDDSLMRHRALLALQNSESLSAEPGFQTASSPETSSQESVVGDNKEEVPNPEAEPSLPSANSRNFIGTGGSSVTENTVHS

Q: Which results are given for `CC(C)(Cc1ccc2ccccc2c1)NC[C@@H](O)COc1cccc(Cl)c1C#N` [MC106]?
A: effect of prior modulator on CaSR response to Zn Proteinate (avian CaSR; 1 micromolar MC106, 0.25% Zinc Proteinate): reduced the avian CaSR's response; effect on CaSR response to 2.5 mM Ca2+ (mammalian CaSR; 1 micromolar MC106 added first): eliminated; effect on subsequent CaSR response to 5 mM Ca2+ (mammalian CaSR; 1 micromolar MC106 added first): reduced; CaSR response to the modulator itself (mammalian CaSR; 1 micromolar MC106 in DMSO): did not itself produce a CaSR response; also recorded: did not elicit a CaSR response; effect on CaSR responses to 0.25% Mintrex Zn or 5.5 mM Ca2+ (mammalian CaSR; initial addition of 1 micromolar MC106): reduced or eliminated responses; effect of modulator on CaSR stimulation by Mintrex Zn (mammalian CaSR; pre-addition of MC106 (FIG. 30D)): suppress the stimulation

Q: With Casein as the compound, how does the “activation of recombinant human CaSR (intracellular calcium)” value (shortened to “activation … (intracellular calcium)”) [1] read?
A: acts as an agonist

Q: For `N=C(N)NCCC[C@H](N)C(=O)O.NCC(=O)O.NCC(=O)O` [gly-gly-arg, glycine-glycine-arginine], which “activation … (intracellular calcium)” value [1] is on record?
A: significant activation

Q: For “bovine serum albumin: a protein that also binds calcium”, which “activation … (intracellular calcium)” value [1] is on record?
A: has no effect

Q: For `[Ca+2]` [Ca2+], which “activation of the ERK kinase pathway (phospho-ERK)” value (chick jejunal CaSR) is on record?
A: selective activation

Q: Which “ERK1/2 phosphorylation as compared to Ca++ with MC0100” value (chicken CaSR) does the source give for bacitracin Zn here?
A: increase in ERK1/2 phosphorylation

Q: Which results are given for `N[C@@H](Cc1ccccc1)C(=O)O` [L-Phenylalanine]?
A: effect on Mintrex Zn inhibition of CaSR response to Ca++ stimulus (avian CaSR; 3 mM L-Phe after 0.25% Mintrex Zn, Ca++ to 7.5 mM): reversed Mintrex-Zn's inhibition; effect on Mintrex Zn inhibition of CaSR response to Ca++ stimulus (mammalian CaSR; 3 mM L-Phe after 0.025% Mintrex Zn, 1.5 mM Ca++, Ca++ to 5 mM): reversed Mintrex-Zn's inhibition

Q: For `NCCCN` [diaminopropane], which “activation … (intracellular calcium)” value [1] is on record?
A: sharp increase in intracellular calcium

Q: Which “activation of recombinant CaSR” value (recombinant CaSR protein) does the source give for `NCCCNCCCCNCCCN` [spermine] here?
A: activated
